Results from patent US8461305B2, “L-fucose α1→6 specific lectin” (J-Oil Mills, Inc., priority 2008, dated 2013).

Experiments:
[1] = frontal affinity chromatography (FAC), association constant to PA sugar chains having α1→6 L-fucose; assay type: binding; settings: 25 degrees C.
Experimental: The following section will describe a method of calculating an association constant by frontal affinity chromatography (FAC). This method is based on the following principle. […] Then, the elution front end (front) is observed immediately. When there is an affinity with lectin, the elution of the sugar chain is delayed.
The preparation of a lectin column used in the apparatus is performed in the method as described below. 1. Purified lectin is dissolved in 0.1 to 0.2M of NaHCO3 buffer solution (pH 8.3 to 8.5). 2. The lectin is immobilized, via a lectin primary amino group, a carrier such as NHS activated sepharose. 3. Then, the lectin is blocked by Tris buffer solution including primary amine or ethanolamine for example. 4. Lectin-sepharose is suspended in 10 mM Tris buffer, including 0.8% of NaCl (pH 7.4, TBS). Then, lectin immobilized resin is filled in a miniature column (φ2 mm×10 mm, 31.4 μl). 5. The miniature column in which the lectin immobilized resin is filled is protected by a holder and the lectin column is connected to an FAC automatic analysis apparatus (FAC-1, SHIMADZU CORPORATION).
Then, the elution of the PA sugar chain from the column is detected by a fluorescence detector (excitation wavelength/fluorescence wavelength: 310 nm/380 nm).
Based on the detection data, by using the elution front end (Vo) of the sugar chain (PA rhamnose) not interacting with lectin as a reference, the delay (V−Vo) of the elution front end (V) of a sugar chain interacting with lectin is calculated as an interaction strength. Then, based on the following FAC criteria expressions, the association constant (Ka) between the sugar chain and lectin is calculated based on V−Vo and Bt. If the interaction strength (V−Vo value) and the association constant are higher, a higher affinity is caused between lectin and an L-fucose α1→6 sugar chain.
[In the formula, A means substance used for the elution, Ao means the initial concentration of the substance A, B means a immobilized ligand, V means the elution volume, Vo means the elution front end volume of the substance not interacting with the immobilized ligand B at all, Bt means an effective ligand amount, Kd means a dissociation constant (an inverse of the association constant)].
Pyridylaminated (PA) sugar chains shown in FIG. 1 and FIG. 2 were used to frontal affinity chromatography (FAC) analysis. PA sugars were purchased from TAKARA BIO INC., SEIKAGAKU BIOBUSINESS CORPORATION, and Masuda Chemical Industries co., LTD. PA sugar were also obtained by pyridylaminating, by GlycoTAG®(TAKARA BIO INC.), an unlabeled sugar chain or a sugar chain obtained by subjecting a sugar chain to enzyme digestion for example.
Lectin was dissolved in 0.2 M NaHCO3 buffer solution (pH 8.3) including 0.5 M NaCl and coupled to the NHS-activated sepharose (GE Healthcare Bioscience) by following the manufacturer's instructions. Then, lectin immobilized sepharose was suspended in 10 mM Tris buffer (pH 7.4, TBS) including […] and the resultant matter was filled in a miniature column (φ2 mm×10 mm, 31.4 μl).
Frontal affinity chromatography was performed using FAC automatic analysis apparatus (FAC-1, SHIMADZU CORPORATION). In particular, the above-prepared lectin column was inserted to a stainless steel holder and the holder was connected to FAC-1 apparatus. The flow rate and the column temperature were maintained at 0.125 ml/min and 25 degrees C., respectively. After the miniature column was equilibrated by the TBS, an excessive volume (0.5 ml to 4 ml) of a PA sugar chain (3.75 nM or 7.5 nM) was continuously inputted to the column using an automatic sampling apparatus.
The fluorescent strength of the eluate of the PA sugar (excitation wavelength of 310 nm and fluorescence wavelength of 380 nm) was monitored to measure the interaction strength [a difference of the front end eluate to the standard oligosaccharide (PA rhamnose): V−V0]. […]

[2] = hemagglutinating inhibition test with sugars (sugar binding specificity); assay type: cell-based
From the text: The sugar binding specificity of lectin also can be confirmed by using erythrocytes that can be specifically agglutinated by the lectin to investigate the sugar type that may inhibit the agglutination of the erythrocytes and the concentration thereof.
Various monosaccharides, oligosaccharides, and polysaccharides shown in Table 2 and glycoproteins shown in Table 3 were subjected to hemagglutinating inhibition test to evaluate PTL of Example 1 and the SRL of Example 2 with regard to the sugar binding specificity.
On a 96 well U-bottom microtiter plate, double dilution series of 10 μl of monosaccharide, oligosaccharide, polysaccharide, and glycoprotein solutions were prepared. Then, lectin solution adjusted in advance to have titer 4 was added in an amount of 10 μl to the respective wells. Then, the plate was subjected to a still-standing at a room temperature for one hour for sensitization. Then, 10 μl of 4%-red blood cell suspension was added to the respective wells and the plate was further subjected to a still-standing at a room temperature for one hour. […] The lowest concentration showing the inhibition was assumed as the minimum inhibition concentration. The lower the minimum inhibition concentration is, the higher the specificity to lectin is.
For comparison, the sugar binding specificity was evaluated using the following commercially-available lectins: Comparison Example 1: AAL (SEIKAGAKU BIOBUSINESS CORPORATION—J-OIL MILLS, Inc.), Comparison Example 2: AOL (TOKYO CHEMICAL INDUSTRY CO., LTD.—Gekkeikan Sake Company, Ltd.), Comparison Example 3: LCA (SEIKAGAKU BIOBUSINESS CORPORATION—J-OIL MILLS, Inc.), and Comparison Example 4: PSA (SEIKAGAKU BIOBUSINESS CORPORATION—J-OIL MILLS, Inc.).

[3] = inhibitor: N-Acetylneuraminic acid
[4] = inhibitor: N-acetylgalactosamine
[5] = inhibitor: N-glycolylneuraminic acid

Molecule	association constant Ka ([1]; Sugar chain No. 015)	association constant Ka ([1]; Sugar chain No. 201)	association constant Ka ([1]; Sugar chain No. 202)	association constant Ka ([1]; Sugar chain No. 203)	association constant Ka ([1]; Sugar chain No. 401)	association constant Ka ([1]; Sugar chain No. 402)	association constant Ka ([1]; Sugar chain No. 403)	association constant Ka ([1]; Sugar chain No. 404)	association constant Ka ([1]; Sugar chain No. 405)	association constant Ka ([1]; Sugar chain No. 406)	association constant Ka ([1]; Sugar chain No. 407)	association constant Ka ([1]; Sugar chain No. 410)	association constant Ka ([1]; Sugar chain No. 413)	association constant Ka ([1]; Sugar chain No. 418)	association constant Ka ([1]; Sugar chain No. 601)	association constant Ka ([1]; Sugar chain No. 602)	minimum inhibition concentration of hemagglutination ([2]; inhibitor: Fructose)	minimum inhibition concentration of hemagglutination ([2]; inhibitor: Galactose)	minimum inhibition concentration of hemagglutination ([2]; inhibitor: Glucose)	minimum inhibition concentration of hemagglutination ([2]; inhibitor: L-fucose)	further results
Stropharia rugosoannulata lectin [SRL, novel L-fucose α1→6 specific lectin purified from the mushroom Stropharia rugosoannulata]	49000 M⁻¹	64000 M⁻¹	61000 M⁻¹	52000 M⁻¹	57000 M⁻¹	44000 M⁻¹	56000 M⁻¹	58000 M⁻¹	54000 M⁻¹	38000 M⁻¹	10000 M⁻¹	39000 M⁻¹	10000 M⁻¹	4300 M⁻¹	10000 M⁻¹	32000 M⁻¹	>100 mM	>100 mM	>100 mM	>100 mM	minimum inhibition concentration of hemagglutination ([2]; inhibitor: Lactose): >6 mM; minimum inhibition concentration of hemagglutination ([2]; inhibitor: Maltose): >100 mM; minimum inhibition concentration of hemagglutination ([2]; inhibitor: Mannose): >100 mM; minimum inhibition concentration of hemagglutination ([2]; inhibitor: Melibiose): >100 mM; minimum inhibition concentration of hemagglutination ([2]; inhibitor: Metyl α-mannoside): >100 mM; minimum inhibition concentration of hemagglutination [2, 3]: >100 mM; minimum inhibition concentration of hemagglutination [2, 4]: >100 mM; minimum inhibition concentration of hemagglutination ([2]; inhibitor: N-acetylglucosamine): >100 mM; minimum inhibition concentration of hemagglutination [2, 5]: >100 mM; minimum inhibition concentration of hemagglutination ([2]; inhibitor: Raffinose): >100 mM; minimum inhibition concentration of hemagglutination ([2]; inhibitor: Rhamnose): >100 mM; minimum inhibition concentration of hemagglutination ([2]; inhibitor: Serial lactose): >6 mM; minimum inhibition concentration of hemagglutination ([2]; inhibitor: Sucrose): >100 mM; minimum inhibition concentration of hemagglutination ([2]; inhibitor: Xylose): >100 mM
Aleuria aurantia lectin (protein) PTEFLYTSKIAAISWAATGGRQQRVYFQDLNGKIREAQRGGDNPWTGGSSQNVIGEAKLFSPLAAVTWKSAQGIQIRVYCVNKDNILSEFVYDGSKWITGQLGSVGVKVGSNSKLAALQWGGSESAPPNIRVYYQKSNGSGSSIHEYVWSGKWTAGASFGSTVPGTGIGATAIGPGRLRIYYQATDNKIREHCWDSNSWYVGGFSASASAGVSIAAISWGSTPNIRVYWQKGREELYEAAYGGSWNTPGQIKDASRPTPSLPDTFIAANSSGNIDISVFFQASGVSLQQWQWISGKGWSIGAVVPTGTPAGW	91000 M⁻¹	51000 M⁻¹	54000 M⁻¹	66000 M⁻¹	55000 M⁻¹	11000 M⁻¹	52000 M⁻¹	65000 M⁻¹	56000 M⁻¹	47000 M⁻¹	45000 M⁻¹	38000 M⁻¹	32000 M⁻¹	<1000 M⁻¹	61000 M⁻¹	52000 M⁻¹	25 mM	>100 mM	>100 mM	0.391 mM	minimum inhibition concentration of hemagglutination ([2]; inhibitor: Lactose): >6 mM; minimum inhibition concentration of hemagglutination ([2]; inhibitor: Maltose): >100 mM; minimum inhibition concentration of hemagglutination ([2]; inhibitor: Mannose): 50 mM; minimum inhibition concentration of hemagglutination ([2]; inhibitor: Melibiose): >100 mM; minimum inhibition concentration of hemagglutination ([2]; inhibitor: Metyl α-mannoside): >100 mM; minimum inhibition concentration of hemagglutination [2, 3]: >100 mM; minimum inhibition concentration of hemagglutination [2, 4]: >100 mM; minimum inhibition concentration of hemagglutination ([2]; inhibitor: N-acetylglucosamine): >100 mM; minimum inhibition concentration of hemagglutination [2, 5]: >100 mM; minimum inhibition concentration of hemagglutination ([2]; inhibitor: Raffinose): >100 mM; minimum inhibition concentration of hemagglutination ([2]; inhibitor: Rhamnose): >100 mM; minimum inhibition concentration of hemagglutination ([2]; inhibitor: Serial lactose): >6 mM; minimum inhibition concentration of hemagglutination ([2]; inhibitor: Sucrose): >100 mM; minimum inhibition concentration of hemagglutination ([2]; inhibitor: Xylose): >100 mM
